A short description of this data set: solvent given as SMILES.

On to `CCCCCCCCCCCCCCCC[n+]1ccc(/C=C(\C)c2ccccc2)cc1`, for which the absorption maximum by setting is: (in C1COCCO1) 387.4 nm; (in CC(C)=O) 383.2 nm; (in CC(C)O) 385.4 nm; (in CCCCCC) 398.5 nm; (in CCCCO) 390.5 nm; (in CCCO) 398.5 nm. The absorption maximum is, setting by setting: (in CCO) 399.5 nm; (in CN(C)C=O) 384.4 nm; (in CO) 400.6 nm; (in CS(C)=O) 384.6 nm; (in Cc1ccccc1) 393.5 nm; (in ClC(Cl)(Cl)Cl) 399.5 nm. The absorption maximum is, setting by setting: (in ClC(Cl)Cl) 384 nm; (in ClCCl) 386.4 nm; (in c1ccccc1) 386.8 nm.

As for `Cc1c2ccc3c(C)[n+](C)ccc3c2cc[n+]1C`, the absorption maximum (in CC#N) turned out to be 390 nm.

For the compound `CN(C)c1nc(N)nc2c1nc(C#N)n2Cc1ccccc1`, the absorption maximum is, setting by setting: (in C1COCCO1) 334 nm; (in CC#N) 326 nm; (in CO) 327 nm; (in ClCCl) 324 nm.

Where the note is “in CS(C)=O”, `N#Cc1c(/C=C/c2ccc(N(c3ccccc3)c3ccccc3)cc2)cc(-c2ccccc2)cc1N1CCCCC1` returned an absorption maximum of 398 nm.

Regarding `COc1ccc(-c2nc3ccccc3oc2=O)cc1`, the absorption maximum (in c1ccccc1) turned out to be 372 nm.

Take `Cc1c2c(c(C)c3ccccc13)-c1cc3nc4ccccc4nc3cc1-2`: the absorption maximum (in ClC(Cl)Cl) turned out to be 448 nm.

`c1ccc(-c2nc(-c3cccs3)[nH]c2-c2ccccc2)cc1`: the absorption maximum (in CC#N) is reported as 317 nm.

In turn, `CC1=C(C#Cc2ccccc2)C(C)=[N+]2C1=C(c1ccccc1)c1c(C)c(C#Cc3ccccc3)c(C)n1[B-]2(F)F` had an absorption maximum (in C1CCOC1) of 573 nm and an absorption maximum (in ClCCl) of 561 nm.

The compound `Cc1cc2ccccc2c2c1c1ccccc1n2-c1ncccn1` registered an absorption maximum (in ClCCl) of 303 nm.

In turn, `CCn1c(=O)nc2n(C)c3cc(C)ccc3nc-2c1=O` returned an absorption maximum (in C1COCCO1) of 443 nm, an absorption maximum (in CC#N) of 445 nm, an absorption maximum (in CO) of 446 nm and an absorption maximum (in ClCCCl) of 448 nm.

Regarding `c1cc2c3c(c1)ccc1[n+]3[B-]3(Oc4cccc5ccc6[n+](c45)[B-](O2)(O3)n2c-6cc3c4ccccc4c4ccccc4c32)n2c-1cc1c3ccccc3c3ccccc3c12`, where the note is “in ClCCl”, the absorption maximum is reported as 472 nm.

As to `CN1CCN(CCCN2c3ccccc3Sc3ccc(Cl)cc32)CC1`, the absorption maximum reads like this: (in CC#N) 314 nm; (in CO) 313 nm; (in O) 309 nm.

The compound `Cc1cccc(C)c1` yielded an absorption maximum (in C1CCCCC1) of 259.74 nm.

As for `[NH3+]C(Cc1ccc(O)cc1)C(=O)[O-]` (stereo not given), the absorption maximum (in O) turned out to be 274 nm.

Where the note is “in ClCCl”, `F[B-]1(F)n2c(c(-c3ccccc3)c(-c3cccs3)c2-c2ccccc2)N=C2C(c3ccccc3)=C(c3cccs3)C(c3ccccc3)=[N+]21` gave an absorption maximum of 650 nm.

`COc1ccc2c(-c3nc(-c4ccccc4F)no3)cc(=O)oc2c1`: the absorption maximum is listed as 333 nm (in CCO) and 339 nm (in ClC(Cl)Cl).

Take `O=P1(c2ccccc2)c2ccc(N3c4ccccc4Oc4ccccc43)cc2-c2cc(N3c4ccccc4Oc4ccccc43)ccc21`: the absorption maximum is, setting by setting: (in Cc1ccccc1) 405 nm; (in c1ccc2c(c1)c1ccccc1n2-c1ccc(-c2ccc(-n3c4ccccc4c4ccccc43)cc2)cc1) 404.2 nm.

For `COc1ccc(/C=C/C2=CC(/C=C/c3ccc(OC)cc3)=[N+]3C2=C(c2ccc(-c4ccc5ccccc5n4)s2)c2c(/C=C/c4ccc(OC)cc4)cc(/C=C/c4ccc(OC)cc4)n2[B-]3(F)F)cc1`, the absorption maximum (in C1COCCO1) was 708 nm.

For the setting “in ClCCl”, `CCCCCCCCCCCCN1C(=O)c2c(c3ccc4cc(-c5ccccc5)c(OC)cc4c3c3c2ccc2cc(-c4ccccc4)c(OC)cc23)C1=O` gave an absorption maximum of 432 nm.

`CC(C)(C)c1cccc2c1oc1nc3oc4ccc(-n5c6ccccc6c6ccccc65)cc4c3cc12` displayed an absorption maximum (in ClC(Cl)Cl) of 348 nm.

Source of the values: the Deep4Chem optical property database.
